Measurements: patent US20200390825A1, “PLURIPOTENT STEM CELL-DIRECTED MODEL OF AUTOSOMAL DOMINANT POLYCYSTIC KIDNEY DISEASE FOR DISEASE MECHANISM AND DRUG DISCOVERY” (University of Southern California, priority 2019, published 2020)

Tests used:
PKD2−/− organoids [1] = test: Primary protein kinase inhibitor screen for cyst formation in mini-kidney organoids; assay type: cell-based, human; details: 1 μM, 9 wells on 3 plates per compound
Experimental: The autoclaved methylcellulose was dissolved in 60° C. 450 ml of Advanced RPMI 1640 Medium (Gibco, 12633020).
Several commercially available libraries of pathway annotated protein kinase inhibitors were purchased from Calbiochem for screening: EMD protein kinase inhibitor 1 (Cat. No. 539744); EMD-protein kinase inhibitor-2 (Cat. No. 539745); EMD protein kinase inhibitor-3 (Cat. No. 539746); EMD protein kinase inhibitor-4 (Cat. No. 539747). All screens were carried out in the Choi Family Therapeutic Screening Facility in the Broad-CIRM center.
Protein kinase inhibitors were diluted in DMSO to make 10 μM stocks. […] The plates were loaded on the ImageXpress Micro System for live imaging right after compounds were loaded. The imaging was performed using the “Standard” algorithm, at 4× magnification, 2 camera binning, with laser-based and image-based focusing enabled, and well-to-well autofocus was set to “focus on plate bottom and well bottom”.
To gain new insight into pathways specifically regulating cystic growth and to validate the mini-organoid system as a robust drug screening tool, we screened a commercial library of pathway annotated protein kinase inhibitors (FIG. 19). The primary screen was performed using a library of 247 protein kinase inhibitors (PKIs) (at 1 μM) on PKD2−/− organoids, with 9 wells on 3 separate plates per compound. […] To increase the stringency of the screen, only compounds identified as “hits” in all 9 wells were considered true “hits” and selected for a secondary screen.

PKD2−/− organoids [2] = details: for Inhibition of cyst formation / cystic growth: PKD2−/− mutant organoids, 0.1 μM
Experimental: (§1) 15 g of methelcellulose powder (Sigma-Aldrich, M0512) was autoclaved in a 500-ml Erlenmeyer flask. The autoclaved methylcellulose was dissolved in 60° C. 450 ml of Advanced RPMI 1640 Medium (Gibco, 12633020). 50 ml of Advanced RPMI 1640 Medium+1× Glutamax (Gibco, 35050079) and 1% Penicillin-Streptomycin (Invitrogen, 15070063) was then added at room temperature to a final volume of 500 ml. The final stock solution was cleared by centrifugation at 4000×g for 2 hours. The clear viscous supernatant was used for the spheroid assay. For mini-organoids culture and imaging, 170 μl of 20% methycellulose stock solution+80% basal differentiation media mix was added to each well of a 96-well plate (brand).
(§2) At dd13, miniature kidney organoids were transferred from the EZSPHERE plates to a sterile 35-mm dish by gentle pipetting with wide-bore P1000 tips. Under a dissecting microscope, 10-12 mini-organoids in 10 μl of media were picked up using a P20 pipetman and released into a well of the methylcellulose plate. A P20 pipette tip was then used to adjust the mini-organoids' positions in the well to avoid clustering. The mini-organoids then dispersed at the bottom of the well.
Compounds that were scored as true “hits” from the primary screen were selected for validations in both PKD1−/− and PKD2−/− mutant organoids. The compounds were diluted in DMSO to 1, 10 or 100 μM via serial dilution to make the working stocks. At dd14, 20 μl of each diluted compound or DMSO was added to a methylcellulose well with embedded organoids (180 μl) to achieve a final concentration of 0.1, 1 or 10 μM. The plates were imaged for 7 days using the ImageXpress Micro System as described above.
Compounds that inhibited cyst formation in both PKD1−/− and PKD2−/− mini-organoids were classified as final “hits”.
Tolvaptan is the first FDA approved pharmacological treatment for ADPKD targeting cAMP levels through the inhibition of AVPR2.
We examined dosage-dependent responses by applying 3 different compound concentrations of each compound: 0.1, 1 and 10 μM.

PKD1−/− organoids = test: Secondary screen of cystogenesis, dosage-dependent responses; assay type: cell-based, human
Experimental: as §1, §2
Compounds that were scored as true “hits” from the primary screen were selected for validations in both PKD1−/− and PKD2−/− mutant organoids. […]

Cc1ncc2ccccc2c1C#N [4-Cyano-3-methylisoquinoline]
Primary screen outcome at dd20 (cystic growth / cell growth inhibition) (PKD2−/− organoids [1]): more specific inhibition of cystic growth

CC(C)C[C@H](NC(=O)[C@H](CCc1ccccc1)NC(=O)CN1CCOCC1)C(=O)N[C@@H](Cc1ccccc1)C(=O)N[C@@H](CC(C)C)C(=O)[C@@]1(C)CO1 [Carfilzomib]
Inhibition of cyst formation / cystic growth (PKD2−/− organoids [2]): prevented cyst formation effectively | Concentration at which cyst formation was prevented (PKD1−/− organoids; PKD1−/− cystic organoids, tested 0.1, 1, 10 μM): only at the highest concentration

O=C1NCCc2[nH]c(-c3ccncc3)cc21 [Cdc7/Cdk9 inhibitor]
Primary screen outcome at dd20 (cystic growth / cell growth inhibition) (PKD2−/− organoids [1]): more specific inhibition of cystic growth

O=C1NC(=NCc2cccs2)S/C1=C\c1ccc2ncccc2c1 [Cdk1 inhibitor IV RO-3306]
Primary screen outcome at dd20 (cystic growth / cell growth inhibition) (PKD2−/− organoids [1]): more specific inhibition of cystic growth

CC1=C(O)C(=O)C=C2C1=CC=C1[C@@]2(C)CC[C@@]2(C)[C@@H]3C[C@](C)(C(=O)O)CC[C@]3(C)CC[C@]12C [Celastrol]
Effect on cell growth (PKD2−/− organoids [2]; PKD2−/− organoids, 10 μM): more broadly detrimental to cell growth | Screen outcome category (PKD2−/− organoids [2]; PKD2−/− organoids, at 1): hit

O=C(c1ccc(Nc2nccc(-c3cc4ccccc4s3)n2)cc1)N1CCC(N2CCCC2)CC1 [IKK inhibitor VII]
Primary screen outcome at dd20 (cystic growth / cell growth inhibition) (PKD2−/− organoids [1]): more specific inhibition of cystic growth

NC(=O)Nc1sc(-c2ccccc2)cc1C(N)=O [IKK-2 inhibitor VI, (5-phenyl-2-ureido)thiophene-3-carboxamide]
Primary screen outcome at dd20 (cystic growth / cell growth inhibition) (PKD2−/− organoids [1]): more specific inhibition of cystic growth

Nc1ncnc2n[nH]c(Nc3ccc(F)cc3)c12 [MNK1 inhibitor]
Primary screen outcome at dd20 (cystic growth / cell growth inhibition) (PKD2−/− organoids [1]): more specific inhibition of cystic growth

Nc1ccc2ncnc(NCCc3ccc(Oc4ccccc4)cc3)c2c1 [NF-κB activation inhibitor]
Inhibition of cyst formation / cystic growth (PKD2−/− organoids [2]): highly effective inhibiting cystic growth | Inhibition of cystic growth (PKD1−/− organoids; PKD1−/− mutants, 0.1 μM): highly effective inhibiting cystic growth

COc1cccc(-c2cc(=O)c3ccccc3o2)c1N [PD 98059]
Primary screen outcome at dd20 (cystic growth / cell growth inhibition) (PKD2−/− organoids [1]): more specific inhibition of cystic growth

CN[C@@H]1C[C@H]2O[C@@](C)([C@@H]1OC)n1c3ccccc3c3c4c(c5c6ccccc6n2c5c31)C(=O)N[C@H]4O [UCN-02, 7-epi-hydroxystaurosporine]
Primary screen outcome at dd20 (cystic growth / cell growth inhibition) (PKD2−/− organoids [1]): more specific inhibition of cystic growth

O=C1c2ccccc2-[n+]2ccc3c([nH]c4ccccc43)c21 [fascaplysin]
Primary screen outcome at dd20 (cystic growth / cell growth inhibition) (PKD2−/− organoids [1]): more specific inhibition of cystic growth
